Source: patent US5278186A, “Chromene derivatives, their production and use” (Takeda Chemical Industries, Ltd., priority 1990, dated 1994)

Target: T1, Acyl-CoA : cholesterol acyltransferase (ACAT) (Rattus norvegicus, UniProt Q7TQM4)
T1 construct: from the mucosal microsome fraction of the small intestine; from tissue; host or cells: small intestine mucosa (microsome fraction), Sprague-Dawley rat
T1 sequence (Q7TQM4 1-524): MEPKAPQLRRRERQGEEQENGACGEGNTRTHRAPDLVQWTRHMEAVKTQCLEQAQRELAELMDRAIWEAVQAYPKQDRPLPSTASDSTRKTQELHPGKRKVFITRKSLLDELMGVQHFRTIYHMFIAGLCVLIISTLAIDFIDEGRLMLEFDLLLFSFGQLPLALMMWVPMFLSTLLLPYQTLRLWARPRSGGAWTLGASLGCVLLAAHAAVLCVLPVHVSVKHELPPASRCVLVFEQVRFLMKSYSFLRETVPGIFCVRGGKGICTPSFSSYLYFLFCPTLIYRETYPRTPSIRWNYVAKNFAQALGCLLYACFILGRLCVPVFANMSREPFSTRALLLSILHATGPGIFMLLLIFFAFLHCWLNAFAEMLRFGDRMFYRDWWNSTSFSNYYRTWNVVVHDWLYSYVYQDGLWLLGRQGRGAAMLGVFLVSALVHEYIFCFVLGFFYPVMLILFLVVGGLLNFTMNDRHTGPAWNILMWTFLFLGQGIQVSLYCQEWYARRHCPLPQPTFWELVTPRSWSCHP
Assay: Acyl-CoA : cholesterol acyltransferase (ACAT) inhibitory activity
Assay type: biochemical
Conditions: mucosal microsome fraction of small intestine of male 6-week old fasted Sprague-Dawley rats, labeled cholesterol ester from [1^14 C] oleoyl-CoA; for inhibition at 1 µM: 10^-6 M, read-out: ACAT Inhibition Rate (%) 10^-6 M; for inhibition at 0.01 µM: 10^-8 M, read-out: ACAT Inhibition Rate (%) 10^-8 M
Procedure: The enzyme ACAT was prepared by the method of Heider et al. described in Journal of Lipid Research, Vol. 24, page 1127 (1982), from the mucosal microsome fraction of the small intestine of male, 6-week old Sprague-Dawley rats which had been fasted for 20 hours.
ACAT activity was calculated by the method of Helgerud et al. described in Journal of Lipid Research, Vol. 22, page 271 (1981), namely, by measuring the amount of the labeled cholesterol ester produced from [1^14 C] oleoyl-CoA and endogenous cholesterol.
Inhibition rates (%) of the production of the labeled cholesterol ester wherein 10^-6 M or 10^-8 M of test compounds were added are shown as an index of ACAT inhibitory activity in Table 1.

inhibition at 1 µM [%] | inhibition at 0.01 µM [%] | Compound
99 |  | Cc1ccccc1-c1c(NC(=O)Nc2ccc(F)cc2F)c(=O)oc2ccc(Cl)cc12 [Example 1, N-[6-chloro-4-(2-methylphenyl)-2-oxo-2H-1-benzopyran-3-yl]-N'-(2,4-difluorophenyl) urea]
 | 34.3 | Cc1cc2oc(=O)c(NC(=O)Cc3ccc(F)cc3F)c(-c3ccccc3C)c2cc1Cl [Example 28, 6-chloro-3-(2,4-difluorophenylacetylamino)-7-methyl-4-(2-methylphenyl)-2H-1-benzopyran-2-one]
 | 56.1 | Cc1ccc2oc(=O)c(NC(=O)Nc3ccc(F)cc3F)c(-c3ccccc3Cl)c2c1 [Example 18, N-[4-(2-chlorophenyl)-6-methyl-2-oxo-2H-1-benzopyran-3-yl)-N'-(2,4-difluorophenyl) urea]
 | 42.7 | Cc1ccc2oc(=O)c(NC(=O)Nc3ccc(F)cc3F)c(-c3ccccc3C)c2c1 [Example 16, N-[2,4-difluorophenyl)-N'-[6-methyl-4-(2-methylphenyl)-2-oxo-2H-1-benzopyran-3-yl) urea]
97 |  | Cc1cc2sc(=O)c(NC(=O)Nc3ccc(F)cc3F)c(-c3ccccc3C)c2cc1Cl [Example 22, N-[6-chloro-7-methyl-4-(2-methylphenyl)-2-oxo-2H-1-thiobenzopyran-3-y-1)-N'-(2,4-difluorophenyl) urea]
 | 81.7 | Cc1cc2oc(=O)c(NC(=O)Nc3ccc(F)cc3F)c(-c3ccccc3C)c2cc1Cl [Example 7, N-[6-chloro-7-methyl-4-(2-methylphenyl)-2-oxo-2H-1-benzopyran-3-yl)-N'-(2,4-difuorophenyl) urea]
95.4 |  | Cc1cc2oc(=O)c(NC(=O)c3ccc(F)cc3F)c(-c3ccccc3C)c2cc1Cl [Example 29, 6-chloro-3-(2,4-difluorobenzoylamino)-7-methyl-4-(2-methylphenyl)-2H-1-benzopyran-2-one]
 | 45.9 | CCc1ccc2oc(=O)c(NC(=O)Nc3ccc(F)cc3F)c(-c3ccccc3C)c2c1 [Example 6, N-[6-ethyl-4-(2-methylphenyl)-2-oxo-2H-1-benzopyran-3-yl]-N'-(2,4-difluorophenyl) urea]
99.2 |  | Cc1cc2oc(=O)c(NC(=O)Nc3ccc(F)cc3F)c(-c3ccccc3C)c2cc1C [Example 3, N-(2,4-difluorophenyl)-N'-[4-(2-methylphenyl)-6,7-dimethyl-2-oxo-2H-1-benzopyran-3-yl] urea]
 | 84.2 | Cc1cc2c(-c3ccccc3C)c(NC(=O)Nc3ccc(F)cc3F)c(=O)oc2cc1Cl [Example 17, N-[7-chloro-6-methyl-4-(2-methylphenyl)-3-oxo-2H-1-benzopyran-3-yl)-N'-(2,4-difluorophenyl) urea]
 | 86.7 | Cc1cc2oc(=O)c(NC(=O)Nc3ccc(F)cc3F)c(-c3ccccc3Cl)c2cc1C [Example 11]

The remaining lines, values behind:

Compound | inhibition at 1 µM [%] | inhibition at 0.01 µM [%]
Cc1cc2oc(=O)c(NC(=O)Nc3cccc(C(F)(F)F)c3)c(-c3ccccc3C)c2cc1Cl [Example 20, N-[6-chloro-7-methyl-4-(2-methylphenyl)-2-oxo-2H-1-benzopyran-3-yl]-N'-(3-trifluoromethylphenyl) urea] | 84.8 | 
Cc1cc2oc(=O)c(NC(=O)Nc3ccc(Cl)cc3)c(-c3ccccc3C)c2cc1C [Example 4, N-(4-chlorophenyl)-N'-[6,7-dimethyl-4-(2-methylphenyl)-2-oxo-2-H-1-benzopyran-3-yl] urea] |  | 69.7
CC(=O)Oc1c(C)cc(NC(=O)Nc2c(-c3ccccc3C)c3cc(Cl)c(C)cc3oc2=O)cc1C [Example 27, N-(4-acetoxy-3,5-dimethylphenyl)-N'-[6-chloro-7-methyl-4-(2-methylphenyl)-2-oxo-2H-1-benzopyran-3-yl]urea] | 99.1 | 
COc1cc(NC(=O)Nc2c(-c3ccccc3C)c3cc(Cl)c(C)cc3oc2=O)cc(OC)c1OC(C)=O [Example 26, N-(4-acetoxy-3,5-dimethoxyphenyl)-N,-[6-chloro-7-methyl-4-(2-methylphenyl)-2-oxo-2H-1-benzopyran-3-yl]urea] | 98.5 | 
COc1cc(NC(=O)Nc2c(-c3ccccc3Cl)c3cc(C)ccc3oc2=O)cc(OC)c1OC(C)=O [Example 24, N-(4-acetoxy-3,5-dimethoxyphenyl)-N'-[4-(2-chlorophenyl)-6-methyl-2-oxo-2H-1-benzopyran-3-yl] urea] | 98.6 | 
CC(C)c1ccc2oc(=O)c(NC(=O)Nc3ccc(F)cc3F)c(-c3ccc(F)cc3)c2c1 [Example 30, N-(2,4-difluorophenyl)-N'-[4-(4-fluorophenyl)-6-isopropyl-2-oxo-2H-1-benzopyran-3-yl] urea] | 90.2 | 
COc1cc(NC(=O)Nc2c(-c3ccccc3C)c3cc(C)c(C)cc3oc2=O)cc(OC)c1OC(C)=O [Example 25, N-(4-acetoxy-3,5-dimethoxyphenyl)-N'-[6,7-dimethyl-4-(2-methylphenyl)-2-oxo-2H-1-benzopyran-3-yl]urea] | 98.8 | 
COc1cc(C=CC(=O)Nc2c(-c3ccccc3C)c3cc(Cl)c(C)cc3oc2=O)cc(OC)c1OC(C)=O [Example 19, 3-(4-acetoxy-3,5-dimethoxycinnamoylamino)-6-chloro-7-methyl-4-(2-methylphenyl)-2H-1-benzopyran-2-one] | 92.3 | 
Cc1ccccc1-c1c(NC(=O)Nc2ccc(F)cc2F)c(=O)oc2ccc(C(C)C)cc12 [Example 2, N-(2,4-difluorophenyl)-N'-[6-isopropyl-4-(2-methylphenyl)-2-oxo-2H-1-benzopyran-3-yl] urea] | 99 | 
